The source of these data is patent US20040077540A1, “Compositions and methods for modulating physiology of epithelial junctional adhesion molecules for enhanced mucosal delivery of therapeutic compounds” (Nastech Pharmaceutical Company Inc., priority 2002, published 2004).

In this test the test system is EpiAirway™ Cell Membrane (mucosal epithelial cell layer). The test is described as follows: Transepithelial electrical resistance (TER) assay in EpiAirway Cell Membrane. In kind it is cell-based. The note with it: for Average TER Value: permeabilizing peptide 1.0 mM on EpiAirway Cell Membrane, each group of lines has its own CONTROL; for TER % of Control: permeabilizing peptide 1.0 mM, control normalized to 100, decrease = increased permeability. The method, then:
The EpiAirway™ system was developed by MatTek Corp (Ashland, Mass.) as a model of the pseudostratified epithelium lining the respiratory tract. The epithelial cells are grown on porous membrane-bottomed cell culture inserts at an air-liquid interface, which results in differentiation of the cells to a highly polarized morphology. The apical surface is ciliated with a microvillous ultrastructure and the epithelium produces mucus (the presence of mucin has been confirmed by immunoblotting). The inserts have a diameter of 0.875 cm, providing a surface area of 0.6 cm^2. The cells are plated onto the inserts at the factory approximately three weeks before shipping. One “kit” consists of 24 units.
A. On arrival, the units are placed onto sterile supports in 6-well microplates. Each well receives 5 mL of proprietary culture medium. This DMEM-based medium is serum free but is supplemented with epidermal growth factor and other factors. […] The 5 mL volume is just sufficient to provide contact to the bottoms of the units on their stands, but the apical surface of the epithelium is allowed to remain in direct contact with air. Sterile tweezers are used in this step and in all subsequent steps involving transfer of units to liquid-containing wells to ensure that no air is trapped between the bottoms of the units and the medium.
B. The units in their plates are maintained at 37° C. in an incubator in an atmosphere of 5% CO2 in air for 24 hours. At the end of this time the medium is replaced with fresh medium and the units are returned to the incubator for another 24 hours.
A. A “kit” of 24 EpiAirway™ units can routinely be employed for evaluating five different formulations, each of which is applied to quadruplicate wells. Each well is employed for determination of permeation kinetics (4 time points), transepithelial electrical resistance (TER), mitochondrial reductase activity as measured by MTT reduction, and cytolysis as measured by release of LDH. An additional set of wells is employed as controls, which are sham treated during determination of permeation kinetics, but are otherwise handled identically to the test sample-containing units for determinations of transepithelial resistance and viability. The determinations on the controls are routinely also made on quadruplicate units, but occasionally we have employed triplicate units for the controls and have dedicated the remaining […] units in the kit to measurements of transepithelial resistance and viability on untreated units or we have frozen and thawed the units for determinations of total LDH levels to serve as a reference for 100% cytolysis.
A. Respiratory airway epithelial cells form tight junctions in vivo as well as in vitro, and thereby restrict the flow of solutes across the tissue. These junctions confer a transepithelial resistance of several hundred ohms×cm^2 in excised airway tissues. In the MatTek EpiAirway™ units, the transepithelial electrical resistance (TER) is reported by the manufacturer to be routinely around 1000 ohms×cm^2. […] The porous membrane-bottomed units without cells, conversely, provide only minimal transmembrane resistance (approximately 5-20 ohms×cm^2).
B. Accurate determinations of TER require that the electrodes of the ohmmeter be positioned over a significant surface area above and below the membrane, and that the distance of the electrodes from the membrane be reproducibly controlled. The method for TER determination recommended by MatTek and employed for all experiments herein employs an “EVOM”™ epithelial voltohmmeter and an “ENDOHM”™ tissue resistance measurement chamber from World Precision Instruments, Inc., Sarasota, Fla.
C. The chamber is initially filled with Dulbecco's phosphate buffered saline (PBS) for at least 20 minutes prior to TER determinations in order to equilibrate the electrodes.
D. Determinations of TER are made with 1.5 mL of PBS in the chamber and 350 μL of PBS in the membrane-bottomed unit being measured. […]

Consider “GYGYGYGYG [NP-4, Occludin: 1st extracellular domain]”, for which the “Average TER Value” is listed as 500 ± 42 ohms-cm^2 and the “TER % of Control” value is recorded as 94.9%.
For the sequence “GEVKVKLIV [NP-9, JAM-1 extracellular domain]”, the “Average TER Value” is listed as 342 ± 185 ohms-cm^2 and the “TER % of Control” value is 92.4%.
For “FIGSNIITSQ [NP-37, Claudin-3: 1st extracellular domain]”, in that order: 304 ± 41 ohms-cm^2 and 66.5%.
For “VVQSTGHMQC [NP-16, Claudin-5: 1st extracellular domain]”, the “Average TER Value” came to 386 ± 44 ohms-cm^2 and the “TER % of Control” value was 104.3%.
Take “TIWEGLWMNC [NP-40, Claudin-4: 1st extracellular domain]”: the “Average TER Value” is listed as 457 ± 146 ohms-cm^2 and the “TER % of Control” value is on record as 100.0%.
For “VSQSTGQIQC [NP-18, Claudin-1: 1st extracellular domain]”, in that order: 439 ± 145 ohms-cm^2 and 118.6%.
For “DRGYGTSLL [NP-3, Occludin: 1st extracellular domain]”, in that order: 766 ± 94 ohms-cm^2 and 145.4%.
For “IVVREFYDPS [NP-14, Claudin-5: 2nd extracellular domain]”, in that order: 286 ± 56 ohms-cm^2 and 92.9%.
In the case of “SVTVHSSEP [NP-1, JAM-1 extracellular domain]”, the “Average TER Value” was 606 ± 130 ohms-cm^2 and the “TER % of Control” value is on record as 115.0%.
“GGSVGYPYG [NP-39, Occludin: 1st extracellular domain]”: the “Average TER Value” was found to be 442 ± 185 ohms-cm^2 and the “TER % of Control” value was determined as 127.7%.
Turning to “TTWLGLWMSC [NP-45, Claudin-1: 1st extracellular domain]”, the “Average TER Value” was determined as 456 ± 162 ohms-cm^2 and the “TER % of Control” value was found to be 131.8%.
For “KVYDSVLALS [NP-43, Claudin-5: 1st extracellular domain]”, in that order: 446 ± 85 ohms-cm^2 and 128.9%.
As for “NRIVQEFYDP [NP-11, Claudin-1: 2nd extracellular domain]”, the “Average TER Value” turned out to be 292 ± 20 ohms-cm^2 and the “TER % of Control” value was found to be 94.8%.
Take “YVGASIVTAV [NP-19, Claudin-2: 1st extracellular domain]”: the “Average TER Value” came out at 374 ± 57 ohms-cm^2 and the “TER % of Control” value amounted to 101.1%.
For “ATHSTGITQC [NP-44, Claudin-2: 1st extracellular domain]”, in that order: 464 ± 61 ohms-cm^2 and 134.1%.
Consider “FLDHNIVTAQ [NP-20, Claudin-5: 1st extracellular domain]”, for which the “Average TER Value” came out at 341 ± 31 ohms-cm^2 and the “TER % of Control” value worked out at 92.2%.
For “YGYGGYTDP [NP-15, Occludin: 1st extracellular domain]”, in that order: 383 ± 79 ohms-cm^2 and 103.5%.
For “NIWEGLWMNC [NP-34, Claudin-3: 1st extracellular domain]”, in that order: 297 ± 40 ohms-cm^2 and 65.0%.
For “VSEEGGNSY [NP-12, JAM-1 extracellular domain]”, the “Average TER Value” was found to be 279 ± 27 ohms-cm^2 and the “TER % of Control” value came to 90.6%.
For “KVYDSLLALP [NP-7, Claudin-3: 1st extracellular domain]”, in that order: 811 ± 87 ohms-cm^2 and 153.9%.
For “KFDQGDTTR [NP-6, JAM-1 extracellular domain]”, in that order: 793 ± 44 ohms-cm^2 and 150.5%.
For “VVQSTGQMQC [NP-36, Claudin-3: 1st extracellular domain]”, in that order: 306 ± 58 ohms-cm^2 and 67.0%.
On to “FIGSNIVTSQ [NP-35, Claudin-4: 1st extracellular domain]”, for which the “Average TER Value” came to 298 ± 56 ohms-cm^2 and the “TER % of Control” value came out at 65.2%.
For “GSGFGSYGS [NP-5, Occludin: 1st extracellular domain]”, in that order: 520 ± 134 ohms-cm^2 and 98.7%.
For “KVFDSLLNLS [NP-2, Claudin-1: 1st extracellular domain]”, in that order: 709 ± 28 ohms-cm^2 and 134.5%.
For “AMYEGLWMSC [NP-38, Claudin-1 1st extracellular domain]”, in that order: 291 ± 89 ohms-cm^2 and 63.7%.
Take “LVCYNNKIT [NP-13, JAM-1 extracellular domain]”: the “Average TER Value” worked out at 288 ± 51 ohms-cm^2 and the “TER % of Control” value is 93.5%.
